The text below walks through data of US5948792A, “Fluorine-containing 1,4-disubstituted piperidine derivatives” (Banyu Pharmaceutical Co., Ltd., priority 1996, dated 1999).

In test [1] the target is T1, airway M3 receptor (Rattus norvegicus, UniProt P08483).
T1 construct: the trachea was isolated; from tissue; host or cells: isolated trachea of male SD strain rat
Put plainly: Antagonism to the airway M3 receptor in an isolated rat trachea (in vitro). Type of test: cell-based. As to the method:
(§1) Tests for Antagonism to Muscarinic Receptors (in vitro)
2) Tests for Antagonism to the Airway M3 Receptor in an Isolated Rat Trachea
These tests were performed according to a conventional method. A male SD strain rat (weighing 300-500 g) was killed by exsanguination, and the trachea was isolated. Annular segments (2 mm wide) were cut out from the trachea and cut transversely at the anterior cartilage part to make open ring preparation. A preparation was suspended in a Magnus tube filled with 5 ml of Krebs-Henseleit solution (gassed with 95% O2 -5% CO2 and kept at 32° C.) with an initial tension of 1.0 g and a resting tension of 0.6 g. The tension of the preparation was recorded isometrically. After being equilibrated for an hour, the preparation was made to contract twice by treatment with 10^-4 M carbachol, and the second contraction induced by carbachol was used as the reference contraction. After the preparation was washed with fresh solution to be restored to the base line, a test compound was administered thereto (or no treatment was given). Ten minutes later, carbachol (10^-8 to 10^-3 M) was cumulatively administered in three-fold increasing doses to obtain a dose-response curve. The dose-response curve was plotted by expressing responses as percentages based on the reference contraction of the preparation as 100%. The antagonistic potency (K^B value) of the test compound was determined from the degree of shift of the dose-response curve obtained by treatment with the test compound.

Test [2] addresses T2, M2 receptor (Rattus norvegicus, UniProt P10980).
T2 construct: the right atrium was isolated; from tissue; host or cells: isolated right atrium of male SD strain rat
T2 sequence (P10980 1-466): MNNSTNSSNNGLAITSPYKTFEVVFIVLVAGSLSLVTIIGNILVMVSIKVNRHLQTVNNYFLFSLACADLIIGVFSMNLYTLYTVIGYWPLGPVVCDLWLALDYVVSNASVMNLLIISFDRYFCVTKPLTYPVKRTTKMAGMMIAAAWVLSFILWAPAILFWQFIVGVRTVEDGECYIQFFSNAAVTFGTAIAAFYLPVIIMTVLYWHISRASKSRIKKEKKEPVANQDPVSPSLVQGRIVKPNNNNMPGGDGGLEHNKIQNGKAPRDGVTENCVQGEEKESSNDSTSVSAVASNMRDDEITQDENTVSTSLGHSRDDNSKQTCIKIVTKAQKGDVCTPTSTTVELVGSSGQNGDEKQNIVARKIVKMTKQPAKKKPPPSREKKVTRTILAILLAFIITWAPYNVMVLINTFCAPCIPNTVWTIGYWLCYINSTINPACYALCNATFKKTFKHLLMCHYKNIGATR
Put plainly: Antagonism to M2 receptor in an isolated rat right atrium (in vitro). The test is classed as cell-based. The settings on record: carbachol-induced decrease in heart rate. How it is done: as §1
1) Tests for Antagonism to M2 receptor in an Isolated Rat Right Atrium
These tests were performed according to a conventional method. A male SD strain rat (weighing 300-500 g) was killed by exsanguination, and the right atrium was isolated. This preparation was isometrically suspended in organ bath filled with 20 ml of Krebs-Henseleit solution (gassed with 95% O2 -5% CO2 and kept at 32° C.) with an initial tension of 0.5 g. The heart rate was recorded with a heart rate counter. After the preparation was equilibrated for 30 minutes, carbachol (10^-9 to 10^-6 M) was cumulatively administered in three-fold increasing doses. Thus, a decrease in heart rate was measured to obtain a dose-response curve for the control experiment. After the preparation was washed with fresh solution to restore the heart rate, a test compound was administered thereto. Ten minutes later, carbachol was cumulatively administered again. Responses to carbachol were expressed as percentages based on the heart rate before administration of carbachol as 100%. The antagonistic potency (KB value) of the test compound was determined from the degree of shift of the dose-response curve obtained by treatment with individual test compound of the present invention.

In test [3] the target is T3, Muscarinic M3 Receptor (Rattus norvegicus, UniProt P08483).
T3 construct: male rats of the Sprague-Dawley strain; from tissue; host or cells: airways of living male Sprague-Dawley rats (in vivo)
T3 sequence (P08483 whole entry): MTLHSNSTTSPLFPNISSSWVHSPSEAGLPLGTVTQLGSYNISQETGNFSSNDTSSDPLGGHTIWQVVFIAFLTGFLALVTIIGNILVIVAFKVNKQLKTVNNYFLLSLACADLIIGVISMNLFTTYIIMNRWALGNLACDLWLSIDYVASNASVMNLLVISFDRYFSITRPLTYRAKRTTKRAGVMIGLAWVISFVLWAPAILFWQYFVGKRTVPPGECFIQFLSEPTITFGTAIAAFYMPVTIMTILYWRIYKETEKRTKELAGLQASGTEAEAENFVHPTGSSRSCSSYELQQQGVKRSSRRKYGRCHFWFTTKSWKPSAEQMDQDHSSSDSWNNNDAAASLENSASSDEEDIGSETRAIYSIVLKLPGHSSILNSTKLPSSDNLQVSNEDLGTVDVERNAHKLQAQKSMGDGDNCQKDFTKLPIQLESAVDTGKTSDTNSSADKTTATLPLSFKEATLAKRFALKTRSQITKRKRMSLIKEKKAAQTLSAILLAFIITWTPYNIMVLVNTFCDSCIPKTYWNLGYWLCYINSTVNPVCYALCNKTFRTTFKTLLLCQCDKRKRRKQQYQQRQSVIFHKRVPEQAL
The test can be described thus: Bronchodilation in rats (i.v.), inhibition of acetylcholine-induced increase in airway resistance. The test is classed as in vivo. The settings on record: iv, 5 min, acetylcholine 50 μg/kg i.v. 5 minutes after test compound, read-out: Inhibition of Airway Contraction ED50 iv. As to the method: Tests for Antagonism Against Muscarinic M3 Receptor (in vivo)
1-A) Tests for Bronchodilation in Rats (i.v.).
Eight- to eleven-weeks-old male rats of the Sprague-Dawley strain, weighing 380-420 g, were anesthetized with urethane (750 mg/kg. i.p.) and α-chloralose (37.5 mg/kg, i.p.). The bronchus of each rat was intubated, and the right jugular vein was cannulated for drug administration. […] To evoke an increase in airway resistance, acetylcholine (50 μg/kg, i.v.) was administered to the animals. The acetylcholine-induced airway resistance increase was measured 5 minutes before and 5 minutes after administration of test compound, and the ratio of the airway resistance of the latter to the former was calculated. In controls, isotonic sodium chloride solution was used in place of the test compounds and otherwise identical procedures were repeated, the calculated ratio being set to be 100%.

The target in test [4] is T4, Muscarinic M2 receptor (Homo sapiens, UniProt P08172).
T4 construct: purchased Receptor Biology, Inc; host or cells: CHO cells (membranes)
T4 sequence (P08172 1-466): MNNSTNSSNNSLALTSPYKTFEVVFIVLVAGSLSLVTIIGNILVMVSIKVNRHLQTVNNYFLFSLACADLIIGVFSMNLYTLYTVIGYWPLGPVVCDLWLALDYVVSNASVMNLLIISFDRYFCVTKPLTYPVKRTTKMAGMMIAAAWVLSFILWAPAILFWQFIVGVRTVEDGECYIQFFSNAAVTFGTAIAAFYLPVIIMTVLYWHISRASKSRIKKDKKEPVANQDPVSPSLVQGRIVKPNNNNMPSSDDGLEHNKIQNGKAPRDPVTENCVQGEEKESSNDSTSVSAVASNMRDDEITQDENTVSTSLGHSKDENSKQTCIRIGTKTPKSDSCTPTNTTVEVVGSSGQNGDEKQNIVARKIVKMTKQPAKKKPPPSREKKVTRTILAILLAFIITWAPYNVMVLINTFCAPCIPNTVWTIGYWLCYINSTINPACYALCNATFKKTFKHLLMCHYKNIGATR
Put plainly: Inhibition of binding of [3H]-N-methylscopolamine to muscarinic M2 receptor. The settings on record: CHO cell membranes expressing cloned human receptor; 0.2 nM [3H]-N-methylscopolamine, pH 7.4, 2 hours, 25° C; read-out: Ki M2 (inhibitory effects on binding to muscarinic M2 receptor). As to the method: (§2) Tests on Inhibition of Binding to Muscarinic Receptors
(§3) These tests were performed according to a modification of the method of Hargreaves et al. (Br. J. Pharmacol. 107: 494-501, 1992). Membranes from CHO cells expressing cloned human m1-m5 (Receptor Biology, Inc.) were incubated with 0.2 nM [^3 H]-N-methylscopolamine and each a compound of the present invention to be tested in 0.5 ml of 50 mM Tris-HCl-10 mM MgCl2 -1 mM EDTA (pH 7.4) for 2 hours at 25° C. Free and membrane-bound [^3 H]-N-methylscopolamine were separated by filtration over glass filters (UniFilter-GF/C; Packard Instruments Co., Inc.) using cell harvester (Filtermate™ 196; Packard Instruments Co., Inc.). Then the filter was washed four times with 1 ml of ice-cold Tris-HCl (pH 7.4) and dried at 50° C. After adding a scintillator (Microscinti 0; Packard Instruments Co., Inc.), the radioactivity was counted by a liquid scintillation counter (TopCount™; Packard Instruments Co., Inc.). Non-specific binding was measured in the presence of 1 μM N-methylscopolamine.

The target of test [5] is T5, Muscarinic M3 receptor (Homo sapiens, UniProt P20309).
T5 construct: purchased Receptor Biology, Inc; host or cells: CHO cells (membranes)
T5 sequence (P20309 whole entry): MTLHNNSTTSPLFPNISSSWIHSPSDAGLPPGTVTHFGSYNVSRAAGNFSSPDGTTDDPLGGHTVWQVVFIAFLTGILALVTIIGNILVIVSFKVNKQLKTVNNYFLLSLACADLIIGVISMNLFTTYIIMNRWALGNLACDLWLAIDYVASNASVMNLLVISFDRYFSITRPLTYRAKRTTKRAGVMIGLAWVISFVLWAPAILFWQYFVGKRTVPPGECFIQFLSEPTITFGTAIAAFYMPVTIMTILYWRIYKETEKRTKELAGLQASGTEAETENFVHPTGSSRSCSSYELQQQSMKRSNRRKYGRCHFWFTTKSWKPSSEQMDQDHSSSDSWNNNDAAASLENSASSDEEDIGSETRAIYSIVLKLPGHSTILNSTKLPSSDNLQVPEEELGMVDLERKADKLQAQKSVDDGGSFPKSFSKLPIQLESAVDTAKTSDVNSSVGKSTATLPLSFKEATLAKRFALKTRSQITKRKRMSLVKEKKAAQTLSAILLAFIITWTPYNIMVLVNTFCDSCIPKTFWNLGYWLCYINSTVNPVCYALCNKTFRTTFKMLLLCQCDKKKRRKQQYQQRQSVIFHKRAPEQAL
Put plainly: Inhibition of binding of [3H]-N-methylscopolamine to muscarinic M3 receptor. To be noted: for Ki: CHO cell membranes expressing cloned human receptor, 0.2 nM [3H]-N-methylscopolamine, pH 7.4, 2 hours, 25° C, read-out: Ki M3 (inhibitory effects on binding to muscarinic M3 receptor); for M2/M3 (ratio of binding Ki): selectivity ratio of Ki values. How it is done:
as §2, §3

T1 sequence (P08483 whole entry): as the sequence (P08483 whole entry) above

As for `CC(C)=CCCN1CCC(NC(=O)[C@](O)(c2ccccc2)[C@@H]2CCC(F)(F)C2)CC1` [Example 1, (2R)-N-[1-(4-methyl-3-pentenyl)piperidin-4-yl]-2-[(1R)-3,3-difluorocyclopentyl]-2-hydroxy-2-phenylacetamide], the antagonist dissociation constant (Kb) was found to be 6.3 nM in test [1] (isolated rat trachea, carbachol-induced contraction) and 1000 nM in test [2]. Also, the “M2/M3 (ratio of KB)” value in test [1] (selectivity ratio of KB values, right atrium M2 / trachea M3) stood at 160. Besides, the ED50 in test [3] is 0.033 mg/kg. The results for the Ki in test [4] and in test [5] were 3200 nM and 5.5 nM, respectively. Moreover, in test [5], the “M2/M3 (ratio of binding Ki)” value amounted to 590.
As to `Cc1cccc(CN2CCC(NC(=O)[C@](O)(c3ccccc3)[C@@H]3CCC(F)(F)C3)CC2)n1` [Example 10, (2R)-N-[1-(6-methylpyridin-2-ylmethyl)piperidin-4-yl]-2-[(1R)-3,3-difluorocyclopentyl]-2-hydroxy-2-phenylacetamide], in test [4], the Ki was 17000 nM. In test [5], the Ki stood at 8.9 nM and the “M2/M3 (ratio of binding Ki)” value is listed as 1900.
As to `O=C(NC1CCN(Cc2ccoc2)CC1)[C@](O)(c1ccccc1)[C@@H]1CCC(F)(F)C1` [Example 12, (2R)-N-[1-(3-furylmethyl)piperidin-4-yl]-2-[(1R)-3,3-difluorocyclopentyl]-2-hydroxy-2-phenylacetamide], the inhibitory constant (Ki) in test [4] was determined as 8600 nM.
On to `O=C(NC1CCN(Cc2ccccn2)CC1)[C@](O)(c1ccccc1)[C@@H]1CCC(F)(F)C1` [Example 14, (2R)-N-[1-(2-pyridylmethyl)piperidin-4-yl]-2-[(1R)-3,3-difluorocyclopentyl]-2-hydroxy-2-phenylacetamide], for which, in test [4], the Ki was 1400 nM. In test [5], the inhibition constant Ki came out at 10 nM and the “M2/M3 (ratio of binding Ki)” value is listed as 140.
In the case of `COc1cccc(CN2CCC(NC(=O)[C@](O)(c3ccccc3)[C@@H]3CCC(F)(F)C3)CC2)c1` [Example 15, (2R)-N-[1-(3-methoxybenzyl)piperidin-4-yl]-2-[(1R)-3,3-difluorocyclopentyl]-2hydroxy-2-phenylacetamide], in test [4], the inhibitory constant (Ki) is 1000 nM.
For the molecule `COc1cc(N)nc(CN2CCC(NC(=O)[C@](O)(c3ccccc3)[C@@H]3CCC(F)(F)C3)CC2)c1.Cl.Cl` [Example 21, (2R)-N-[1-(6-amino-4-methoxypyridin-2-ylmethyl)piperidin-4-yl]-2-[(1R)-3,3-difluorocyclopentyl]-2-hydroxy-2-phenylacetamide dihydrochloride], the Ki in test [4] worked out at 50000 nM. Besides, in test [5], the Ki was 22 nM and the “M2/M3 (ratio of binding Ki)” value turned out to be 2300.
In the same order, the values of `Cc1cc(N)cc(CN2CCC(NC(=O)[C@](O)(c3ccccc3)[C@@H]3CCC(F)(F)C3)CC2)c1.Cl.Cl` [Example 22, (2R)-N-[1-(3-amino-5-methylbenzyl)piperidin-4-yl]-2-[(1R)-3,3-difluorocyclopentyl]-2-hydroxy-2-phenylacetamide dihydrochloride] are 13000 nM, 19 nM and 680.
For the molecule `Nc1cc(N)cc(CN2CCC(NC(=O)[C@](O)(c3ccccc3)[C@@H]3CCC(F)(F)C3)CC2)c1` [Example 27, (2R)-N-[1-(3,5-diaminobenzyl)piperidin-4-yl]-2-[(1R)-3,3-difluorocyclopentyl]-2-hydroxy-2-phenylacetamide], the Ki in test [4] was determined as 4200 nM. In test [5], the Ki was 20 nM and the “M2/M3 (ratio of binding Ki)” value amounted to 210.
Take `COc1cc(N)cc(CN2CCC(NC(=O)[C@](O)(c3ccccc3)[C@@H]3CCC(F)(F)C3)CC2)c1.Cl.Cl` [Example 31, (2R)-N-[1-(3-amino-5-methoxybenzyl)piperidin-4-yl]-2-[(1R)-3,3-difluorocyclopentyl]-2-hydroxy-2-phenylacetamide dihydrochloride]: the values for the inhibition constant Ki in test [4] and in test [5] were 10000 nM and 19 nM, respectively. Moreover, the “M2/M3 (ratio of binding Ki)” value in test [5] was 520.
As for `CN1C2CCC1CC(OC(=O)C(CO)c1ccccc1)C2` (stereo not shown) [atoropine, reference compound], in test [3], the ED50 was 0.0043 mg/kg.

One may read the Kb as the equilibrium dissociation constant of an antagonist, usually derived from a functional assay. The term ED50 denotes the dose that gives a 50% effect, or the effect in half of the subjects. The Ki is a measure of affinity in units of concentration, obtained from inhibition or displacement.
